# Results reported in patent US8673869B2, “Determinants of sensitivity to chemotherapeutic agents” (Western Sydney Local Health District, priority 2004, dated 2014).
# B1: siRNA41: 19 bp siRNA targeting the region of the ANKRD1 open reading frame encoding the N-terminus, expressed from pSilencer 2.1-U6 hygro vector (nucleic acid)
# chain: GATCCCAGTTCCAGTTGTGAAGGAATTCAAGAGATTCCTTCACAACTGGAACTTTTTTTGGAAA
# modifications: the letters are possibly those of the target site
# notes: 19 bp siRNA targeting the region of the ANKRD1 open reading frame encoding the N-terminus, expressed from pSilencer 2.1-U6 hygro vector
# B2: siRNA58: 19 bp siRNA targeting the central portion of the ANKRD1 coding region, expressed from pSilencer 2.1-U6 hygro vector (nucleic acid)
# chain: GATCCCGTTCCGTGATATGCTTGAATTTCAAGAGAATTCAAGCATATCACGGAATTTTTTGGAA
# modifications: the letters are possibly those of the target site
# notes: 19 bp siRNA targeting the central portion of the ANKRD1 coding region, expressed from pSilencer 2.1-U6 hygro vector
# B3: siRNA77: 19 bp siRNA targeting the region of the ANKRD1 open reading frame encoding the C-terminus, expressed from pSilencer 2.1-U6 hygro vector (nucleic acid)
# chain: GATCCCGTGGAACCAAAGCAATATTCTTCAAGAGAGAATATTGCTTTGGTTCCATTTTTTGGAAA
# modifications: the letters are possibly those of the target site
# notes: 19 bp siRNA targeting the region of the ANKRD1 open reading frame encoding the C-terminus, expressed from pSilencer 2.1-U6 hygro vector
# How the values were obtained:
# [1] = tested on: CHO-K1 cells and SC2 cells; test: Carboplatin and oxaliplatin cell survival by modified MTS assay; type: cell-based, Chinese hamster; settings: 2 hr drug exposure, 6 days incubation, FIG. 9
# Method: FIG. 9. Effect of carboplatin (A) and oxaliplatin (B) on cell survival in CHO-K1 cells (diamonds) and SC2 cells (squares). Cell survival was measured by modified MTS assay. Results are expressed as a percentage of the vehicle-treated control, as a mean and standard error of triplicate wells from six independent experiments. Results were subjected to a paired t-test where * is p<0.05 and ** is p<0.005.
# CHO-K1 and SC2 cells were each seeded into 24-well plates, incubated overnight then exposed to a range of concentrations of carboplatin or oxaliplatin for 2 hr. The drugs were removed, wells washed and the growth media replaced. Cells were incubated for 6 days and cell proliferation measured using a modified colorimetric MTS (3-(4,5-dimethylthiazol-2-yl)-5-(3-carboxy-methoxyphenyl)-2-(4-sulfophenyl)-2H-tetrazolium, inner salt) proliferation assay. MTS solution was added to each well and colour development measured on a plate reader at 490 nm.
# [2] = tested on: human ovarian and breast cell lines; test: Relative cisplatin sensitivity (IC37) by MTS proliferation assay; type: cell-based; settings: 72 hr drug exposure, FIG. 7B
# Method: FIG. 7. Expression of ANKRD1 in ovarian and breast cell lines. RNA was extracted from a range of normal and malignant ovarian and breast cell lines. ANKRD1 expression was measured by real-time PCR. A. Results are shown as relative mRNA levels, corrected for human P0 (acidic phosphoprotein P0; also known as 36B4, part of the 60S ribosomal RNA complex) and 18S rRNA. All cell lines are human. HOSE 17.1 and BRE-80 are normal ovarian and breast cell lines respectively; the remaining cell lines are malignant. B. Cisplatin (CDDP) sensitivity was determined for 13 of the cell lines. Survival was determined by MTS assay after exposing the cells to drug for 72 hr. The IC37 is shown for each cell line, results are the mean determined from between two and seven independent experiments. Asterix indicates IC37 not determined. C. Association between growth inhibition by cisplatin (IC37) and expression of ANKRD1 mRNA in 13 cell lines.
# Relative cisplatin sensitivity was measured in 13 cell lines using a colorimetric proliferation assay. Cells were seeded into 96-well plates in a volume of 100 μl at 500 to 2000 cells per well. […] IC37 values were calculated for each cell line from survival curves, using data generated from between two to seven independent experiments.
# SC2 cells [3] = test: Clonogenic survival of ANKRD1-transfected SC2 clones exposed to cisplatin; type: cell-based, Chinese hamster; settings: SC2 clones transfected with rat ANKRD1 cDNA vs untransfected and vector control, 6 μM cisplatin, FIG. 5
# Method: FIG. 5. […] Rat ANKRD1 cDNA was transfected into SC2 cells and transfected clones selected. ANKRD1-transfected clones were exposed to 6 μM cisplatin and the surviving fraction was measured by clonogenic assay. Survival in 4 transfected clones (SC2+ANKRD1) was compared with untransfected SC2 cells and empty vector-control transfected SC2 cells (SC2+vector).
# To determine whether ANKRD1 has the ability to decrease sensitivity to cisplatin, rat ANKRD1 cDNA in the pcDNA3.1 expression vector, under the control of a CMV promoter, (a gift from the laboratory of Prof. L. Kedes, University of Southern California, USA) was transfected into the ANKRD1-deficient, platinum-sensitive SC2 mutant using Lipofectamine 2000 (Invitrogen Life Technologies, Carlsbad, Calif., USA). Transfected clones were selected and maintained in 400 μg/ml G-418 (Gibco-BRL).
# SC2 cells [4] = test: Cisplatin sensitivity by colony formation (clonogenic assay); type: cell-based, Chinese hamster; settings: 10 uM cisplatin for 2 hr, colony formation over 6 days, percentage of vehicle-treated control
# Method: (§1) FIG. 2. Cisplatin sensitivity of CHO cell lines. Parental CHO-K1 and the platinum-sensitive clone SC2 were exposed to a range of cisplatin (CDDP) concentrations for 2 hrs. The drug was then removed and the surviving cell fraction was determined by colony formation over 6 days. Colonies were fixed, stained with 0.1% crystal violet and counted. The results are expressed as a percentage of vehicle-treated control (mean and standard error from duplicate plates in at least three separate experiments) at differing cisplatin (CDDP) concentrations. The present inventors have used a novel approach to identify genes that determine sensitivity to platinum-based chemotherapeutic agents. This strategy utilized the mutant Chinese hamster ovary (CHO) cell line SC2 which is more sensitive to platinum than the parent CHO-K1 cell line. Parental CHO-K1 and mutant CHO cell lines were provided as a gift from Dr I Hickson and Dr C Robson (Imperial Cancer Research Fund, Oxford UK) (Robson, C, et al, 1985). The strategy adopted is outlined in FIG. 1. CHO-K1 cells were mutagenised with ethyl methane sulphonate (EMS). Mutants with altered sensitivity to cisplatin were isolated using replica plating. […] The drug was then removed and the surviving cell fraction was determined by colony formation over 6 days. Colonies were fixed, stained with 0.1% crystal violet and counted. […]
# CHO-K1 cells = test: as above; type: cell-based, Chinese hamster; settings: 10 uM cisplatin for 2 hr, colony formation over 6 days, percentage of vehicle-treated control
# Method: as §1
# ANKRD1 = ANKRD1 mRNA by real-time PCR in siRNA transfected CHO-K1 cells; type: cell-based, Chinese hamster; settings: pools of stably transfected CHO-K1 cells, relative to parent CHO-K1, FIG. 6A
# Method: FIG. 6. Increased sensitivity to cisplatin in CHO-K1 cells following reduction of ANKRD1 expression by siRNA. CHO-K1 were transfected with one of three inserts designed to knock-down ANKRD1 expression by targeting regions of the open reading frame encoding the N-terminus (siRNA41; SEQ ID NO: 5), the central portion (siRNA58; SEQ ID NO: 6) or the C-terminus (siRNA77; SEQ ID NO: 7). Pools (P1) of siRNA transfected cells were selected and maintained in hygromycin B. A. ANKRD1 mRNA was measured by real-time PCR. Results are shown as a percentage of the parent CHO-K1 ANKRD1 mRNA levels and corrected for rodent GAPDH (glyceraldehyde-3-phosphate dehydrogenase) and 18S rRNA. B. Cisplatin (CDDP) sensitivity in CHO-K1 and siRNA transfected cells was measured by clonogenic assay. The results are expressed as the mean and standard error of duplicate plates from at least three separate experiments.
# To confirm that ANKRD1 was able to modulate platinum sensitivity, the converse hypothesis was tested, that decreasing ANKRD1 expression in the resistant, CHO-K1 cell line would increase sensitivity. Three 19 bp siRNA oligonucleotides were designed to regions encoding the N- and C-terminus as well as to a central portion of the coding region of the CHO ANKRD1 sequence. The sequences of the sense strands of these siRNA oligonucleotides are shown in SEQ ID NOs: 5 (siRNA41), 6 (siRNA58) and 7 (siRNA77). […]
# To examine ANKRD1 mRNA expression, 100 ng of cDNA used as templates in real-time PCR using the ABI PRISM 7700 Sequence Detection System (PE Applied Biosystems). Samples were made up in a final volume of 25 μL with Platinum Quantitative PCR Supermix-UDG (Invitrogen) and 250 nM of each primer set. […] Relative concentrations of ANKRD1 and housekeeping genes were determined by comparison of Ct values to a standard curve produced using a sample containing cDNA produced from RNA of known concentration. […]
molecule,measurement,setting,value
O=C1[O][Pt]2([NH][C@@H]3CCCC[C@H]3[NH]2)[O]C1=O [oxaliplatin],resistance of CHO-K1 cells compared to SC2 cells,[1],significantly more resistant
N.N.[Cl][Pt][Cl] [cisplatin],relative cisplatin response (IC37),"[2]; COLO 316, T-47D and MCF-7 cell lines",among the most resistant
same,relative cisplatin response (IC37),"[2]; HOSE 17.1, A2780 and PEO1 cell lines",amongst the most sensitive
same,resistance to cisplatin after ANKRD1 transfection,SC2 cells [3],increased resistance
same,cell survival,SC2 cells [4],less than 2%
same,cell survival,CHO-K1 cells,greater than 80%
N.N.O=C([O-])C1(C(=O)[O-])CCC1.[Pt+2] [carboplatin],resistance of CHO-K1 cells compared to SC2 cells,[1],significantly more resistant
B1,ANKRD1 expression (mRNA),ANKRD1,virtually ablated
B2,ANKRD1 expression (mRNA),ANKRD1,similarly reduced
B3,ANKRD1 expression (mRNA),ANKRD1,similarly reduced
